{"source": "a melting point compilation (Tetko et al.; mined from patent text by program, amines drawn as free bases though some values may be those of a salt)"}
{"units": {"melting point": "°C"}}
{"smiles": "COCCn1nc(CC(C)C)c2cn(Cc3cccc4ccccc34)cc2c1=O", "melting point": "96 to 98"}
{"smiles": "COc1cc([N+](=O)[O-])c(NCCCO)cc1O", "melting point": 149}
{"smiles": "Cc1cc(C(=O)c2ccccc2)c(C)n1C(C)C(=O)Nc1ccccc1", "note": "(centres undefined)", "melting point": "165 to 166"}
{"smiles": "CCN(CC)C(=O)c1cc2ccccc2c(-c2cccc(C(F)(F)F)c2)n1", "melting point": 76}
{"smiles": "O=C1CCCc2cc(Sc3ccccc3)cc(F)c21", "melting point": "112 to 113"}
{"smiles": "Cc1ccc(CSC[C@H](NC(=O)[C@H](C)CSC(=O)c2ccccc2)C(=O)O)cc1", "melting point": "115 to 126"}
{"smiles": "CC(C)(C(=O)O)C1OCCc2ccccc21", "note": "(centres undefined)", "melting point": "110 to 116"}
{"smiles": "CN(C/C=C\\c1ccc(Cl)cc1)Cc1cccc2ccccc12", "melting point": "41 to 42"}
{"smiles": "CCCCCS(=O)(=O)NC(=O)c1ccc2sc(C)c(Cc3ccc(Cl)c(Cl)c3)c2c1", "melting point": "159 to 160"}
{"smiles": "C=CC1(O)CCC2(C)C(CCC3C2CCC2(C)C(OC)CCC32)C1", "note": "(centres undefined)", "melting point": "104 to 111"}
{"smiles": "CN1C(=O)CN(C2=CC(C)(C)Oc3ccc(C#N)cc32)C1=O", "melting point": "188 to 190"}
{"smiles": "CC(C)Oc1ccc(-n2c(CC(=O)O)c(C(=O)O)c3cc(Oc4cccc(C(F)(F)F)c4)ccc32)cc1", "melting point": 203}
{"smiles": "CC1=C(C(=O)c2ccc3c(c2)CN(C(N)=O)CC3)C(C)(C)CCC1", "melting point": "92.5 to 93.6"}
{"smiles": "COC(C)C#Cc1ncn2c1CN(C)C(=O)c1c(Cl)cccc1-2", "note": "(centres undefined)", "melting point": "139 to 141"}
{"smiles": "Cc1oc(-c2ccccc2)nc1CCOc1ccc(C[C@H](NC(=O)C=Cc2ccc(F)cc2)C(=O)O)cc1", "melting point": "188 to 190"}
{"smiles": "COC(=O)C1(C(C[N+](=O)[O-])c2ccccc2)CCc2ccccc2C1=O", "note": "(centres undefined)", "melting point": "101 to 103"}
{"smiles": "O=c1c(CCCO)c(O)c2cccnc2n1-c1ccccc1", "melting point": "218 to 220"}
{"smiles": "CC1(C)C(=O)Nc2cc3[nH]cnc3cc21", "melting point": "278 to 280"}
{"smiles": "CCCCC1COC(=S)N1", "note": "(centres undefined)", "melting point": "71 to 72"}
{"smiles": "C=CCc1cc2c(c(CC=C)c1O)CCC(=O)N2c1ccc(OC)cc1", "melting point": 154}
{"smiles": "Cn1nnnc1SCCCC(=O)c1ccc(C(=O)O)o1", "melting point": "154 to 157"}
{"smiles": "CC(C)c1cccc(C(C)C)c1NC(=O)c1ccccc1N", "melting point": "207 to 209"}
{"smiles": "CC(=O)CCSc1cc(C(C)(C)C)c(O)c(C(C)(C)C)c1", "melting point": "79 to 81"}
{"smiles": "CN(C)c1onc2c1c(=O)n(C)c(=O)n2C", "melting point": "188 to 190"}
{"smiles": "O=C(NC1N=C(c2ccccc2F)c2ccccc2NC1=O)c1cc2ccccc2o1", "note": "(racemic)", "melting point": "289 to 291"}
{"smiles": "COc1c(C(C)(C)C)cc([PH](=O)c2cc(C(C)(C)C)c(OC)c(C(C)(C)C)c2)cc1C(C)(C)C", "melting point": 166}
{"smiles": "CCOC(=O)C1(O)C=CN=c2ccc3c(c21)NCN=3", "note": "(centres undefined)", "melting point": "315 to 316"}
{"smiles": "COc1cc2c(cc1OC)S(=O)c1ccc(Cl)cc1C(N1CCN(C)CC1)C2", "note": "(centres undefined)", "melting point": "178 to 179"}
{"smiles": "O=c1[nH]nnn1-c1ccc(C(F)(F)F)cc1", "melting point": "191 to 192"}
{"smiles": "COc1cc(C(=O)CBr)ccc1OCC(F)(F)F", "melting point": 120}
{"smiles": "CCCn1nc2c(N)nc3ncccc3c2c1CC(C)(C)O", "melting point": "252 to 255"}
{"smiles": "CCOC(=O)c1cn2ccncc2n1", "melting point": 179}
{"smiles": "O=C(O)c1cn(C2CC2)c2c(F)c(F)c(F)c(NC(=O)C(F)(F)F)c2c1=O", "melting point": 188}
{"smiles": "COC(=O)Nc1ccc(Br)c(C)c1", "melting point": "71 to 72"}
{"smiles": "CCOC(=O)Cc1ccc(-c2nc(COc3ccc(COc4nn(-c5ccccc5)cc4/C=C\\c4cncn4CC)cc3OC)c(C)o2)cc1", "melting point": "85 to 86"}
{"smiles": "COc1cc(-c2cccc([N+](=O)[O-])c2)ccc1N", "melting point": "167 to 168"}
{"smiles": "CCOC(=O)c1c(N2CCN(C(=O)c3ccco3)CC2)c2cc(F)cnc2[nH]c1=O", "melting point": 207}
{"smiles": "CC(C)C(Nc1ccc(C(F)(F)F)cc1)C(N)=O", "note": "(centres undefined)", "melting point": "93 to 94"}
{"smiles": "Cc1coc2c1C(=O)CC(c1cccs1)C2", "note": "(centres undefined)", "melting point": "81 to 82"}
{"smiles": "Oc1ccc(Nc2nnc(Cc3ccncc3)c3ccccc23)cc1", "melting point": "239 to 241"}
{"smiles": "CC(C(=O)O)c1ccc2cc(O)ccc2c1", "note": "(centres undefined)", "melting point": "186 to 188"}
{"smiles": "CC(C(=O)O)c1ccc2c(c1)C(=O)c1cc(Cl)ccc1CS2", "note": "(centres undefined)", "melting point": "128 to 131"}
{"smiles": "CCCCCCCCCCCCCCCCCC(=O)c1ccc(OC)c(C(=O)OC)c1", "melting point": "73 to 74"}
{"smiles": "Cn1ncc2c1-c1c(Oc3ccc4c(c3)OCO4)sc(C(=O)NCc3ccncc3)c1CC2", "melting point": "202 to 204"}
{"smiles": "Oc1ccc(F)c(-c2c(-c3ccccc3)cnc3c(C(F)(F)F)cccc23)c1", "melting point": 85}
{"smiles": "C#CCN1C(=O)c2ccccc2C1OC", "note": "(centres undefined)", "melting point": "85 to 87"}
{"smiles": "COCOc1ccc(C(=O)OC)c(OCc2ccc(Cl)cc2Cl)c1C", "melting point": "98.8 to 99"}
{"smiles": "Cc1ccnc(SCc2nc3ccc(CC(=O)O)cc3[nH]2)c1", "melting point": "121 to 124"}
{"smiles": "CCOC(=O)c1ncn2c1CN(C)C(=O)c1c(Cl)cccc1-2", "melting point": "229 to 230"}
{"smiles": "Cc1ccc(C(=O)C2=C(O)C(=O)N(c3ccc(C)nn3)C2c2ccc(N3CCN(CCN(C)C)CC3)cc2)cc1", "note": "(centres undefined)", "melting point": 185}
{"smiles": "Cc1oncc1C(=O)c1ccc(S(C)=O)c(Cl)c1Cl", "note": "(centres undefined)", "melting point": "125 to 126"}
{"smiles": "CCC=Cc1ncc(/C=C(\\Cc2cccs2)C(=O)O)n1Cc1ccccc1Cl", "melting point": "224 to 226"}
{"smiles": "O=c1[nH]c2cc(OCCN3CCC(Cc4ccccc4)CC3)ccc2o1", "melting point": "176 to 177"}
{"smiles": "Cc1nc(-n2ccn(Cc3ccc(F)cc3)c2=O)sc1C(=O)NCc1cccnc1", "melting point": "158 to 159"}
{"smiles": "Cc1ccc(S(=O)(=O)NOC(C)C)cc1", "melting point": 104}
{"smiles": "CN1CCC(C2(O)c3ccc(Cl)cc3Sc3ccc(F)cc32)CC1", "note": "(centres undefined)", "melting point": "133 to 142"}
{"smiles": "COCOc1ccc(-c2cc(S(C)=O)nn2-c2ccc(OC)cc2)cc1", "note": "(centres undefined)", "melting point": 137}
{"smiles": "O=C1C=CC(=O)c2c1cccc2[N+](=O)[O-]", "melting point": 161}
{"smiles": "O=C1CCCCCCCCCCC(=O)O1", "melting point": "85 to 89"}
{"smiles": "CCN1C=C(C(=O)O)C(=O)CC1c1ccc(OC)cc1", "note": "(centres undefined)", "melting point": "173 to 174"}
{"smiles": "COc1ccc(N(C(=O)CCl)c2c(Cl)cccc2Cl)cc1", "melting point": "105 to 106"}
{"smiles": "CC1(C)CCC(=O)Nc2ccc([N+](=O)[O-])cc21", "melting point": 208}
{"smiles": "COC(=O)c1nc2cc(C)ccc2c(O)c1C(=O)OC", "melting point": "209 to 211"}
{"smiles": "CN1CCN(c2cc(Br)cc3c2c(=O)n(Cc2ccccc2)c(=O)n3Cc2ccccc2)CC1", "melting point": "80 to 84"}
{"smiles": "Cc1ccc(Nc2cc(-c3ccccc3)nc(-c3ccccc3)c2)cc1", "melting point": 125}
{"smiles": "Nc1nc(NCc2cccc(F)c2)nc2nc(-c3ccco3)nn12", "melting point": "216 to 218"}
{"smiles": "NC(=O)c1ccc(I)c([N+](=O)[O-])c1", "melting point": "152 to 155"}
{"smiles": "Cc1ccc(-c2ccccc2-c2c(OC(C)C)c(=O)c2=O)cc1", "melting point": "126 to 130"}
{"smiles": "COc1ccc(C)cc1NC(=O)Nc1ccc2c(c1)CCN(C(=O)Oc1ccc(C(=O)O)cc1Cl)C2", "melting point": "196 to 198"}
{"smiles": "Oc1ccc(CC2NCCC3=C2CCCC3)cc1", "note": "(single isomer, unassigned; (+))", "melting point": "154 to 156"}
{"smiles": "Cn1c(Cl)cnc1C#N", "melting point": "87 to 89"}
{"smiles": "O=C(O)c1ccc(OC2CC2)cc1", "melting point": "153 to 155"}
{"smiles": "CCCCc1nc2ccc(C(C)=O)cc2c(=O)n1Cc1ccc(-c2ccccc2-c2nnnn2C(c2ccccc2)(c2ccccc2)c2ccccc2)cc1", "melting point": "104 to 105"}
{"smiles": "CC(C)(C)N(Cc1ccccc1)CC(O)c1ccc(OCc2ccccc2)c(C(O)CO)c1", "note": "(centres undefined)", "melting point": "148 to 149"}
